How the values were obtained:
[1] = target: Mu-type opioid receptor (Rattus norvegicus, UniProt P33535); assay: Antagonist activity at mu-opioid receptor in rat thalamus membrane assessed as inhibition of DAMGO-stimulated [35S]GTPgammaS binding incubated for 2 hrs by liquid scintillation spectrophotometry; assay type: functional, cell membranes
[2] = target: P-gp (ABCB1) (Homo sapiens, UniProt P08183); assay: Substrate activity at P-gp in human Caco-2 cells assessed as efflux ratio measured for 2 hrs by HPLC analysis; assay type: ADME, cell-based
Sequence of P-gp (ABCB1) (P08183 whole entry): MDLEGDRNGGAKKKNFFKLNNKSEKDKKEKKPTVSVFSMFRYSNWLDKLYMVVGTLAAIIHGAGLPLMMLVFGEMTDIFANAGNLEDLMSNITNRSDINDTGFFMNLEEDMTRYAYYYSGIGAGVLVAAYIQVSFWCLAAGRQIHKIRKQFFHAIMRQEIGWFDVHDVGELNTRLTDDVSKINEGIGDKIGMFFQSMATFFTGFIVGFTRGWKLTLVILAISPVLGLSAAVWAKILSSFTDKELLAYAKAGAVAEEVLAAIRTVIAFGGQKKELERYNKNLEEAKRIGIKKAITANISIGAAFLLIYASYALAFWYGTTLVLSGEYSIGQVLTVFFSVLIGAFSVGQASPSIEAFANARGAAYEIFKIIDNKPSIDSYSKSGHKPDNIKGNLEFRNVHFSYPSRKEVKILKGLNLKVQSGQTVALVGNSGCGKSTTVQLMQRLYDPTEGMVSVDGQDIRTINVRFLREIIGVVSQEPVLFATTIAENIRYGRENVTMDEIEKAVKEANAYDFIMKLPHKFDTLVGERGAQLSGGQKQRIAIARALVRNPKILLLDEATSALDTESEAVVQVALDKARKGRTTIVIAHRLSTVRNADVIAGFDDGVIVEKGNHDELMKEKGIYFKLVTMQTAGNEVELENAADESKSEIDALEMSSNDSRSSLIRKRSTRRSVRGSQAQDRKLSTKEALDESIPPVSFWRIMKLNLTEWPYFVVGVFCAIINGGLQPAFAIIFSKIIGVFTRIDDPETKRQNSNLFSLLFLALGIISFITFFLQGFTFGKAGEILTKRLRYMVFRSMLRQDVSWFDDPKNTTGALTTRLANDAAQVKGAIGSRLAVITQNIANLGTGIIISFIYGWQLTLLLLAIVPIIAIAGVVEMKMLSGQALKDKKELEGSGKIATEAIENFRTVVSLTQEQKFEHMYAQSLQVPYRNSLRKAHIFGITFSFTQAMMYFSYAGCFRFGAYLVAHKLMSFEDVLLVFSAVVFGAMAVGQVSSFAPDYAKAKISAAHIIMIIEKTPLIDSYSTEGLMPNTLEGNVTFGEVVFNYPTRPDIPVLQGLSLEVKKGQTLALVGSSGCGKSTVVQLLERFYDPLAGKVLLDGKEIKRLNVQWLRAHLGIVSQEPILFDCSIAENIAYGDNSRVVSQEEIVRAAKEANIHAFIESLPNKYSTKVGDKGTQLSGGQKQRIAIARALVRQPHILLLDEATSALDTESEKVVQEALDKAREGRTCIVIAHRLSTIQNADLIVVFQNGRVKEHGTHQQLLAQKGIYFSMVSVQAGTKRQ

[3] = Apparent permeability of the compound across apical to basolateral side in human Caco-2 cells measured for 2 hrs by HPLC analysis; assay type: ADME, cell-based

Sequence of Mu-type opioid receptor (P33535 whole entry): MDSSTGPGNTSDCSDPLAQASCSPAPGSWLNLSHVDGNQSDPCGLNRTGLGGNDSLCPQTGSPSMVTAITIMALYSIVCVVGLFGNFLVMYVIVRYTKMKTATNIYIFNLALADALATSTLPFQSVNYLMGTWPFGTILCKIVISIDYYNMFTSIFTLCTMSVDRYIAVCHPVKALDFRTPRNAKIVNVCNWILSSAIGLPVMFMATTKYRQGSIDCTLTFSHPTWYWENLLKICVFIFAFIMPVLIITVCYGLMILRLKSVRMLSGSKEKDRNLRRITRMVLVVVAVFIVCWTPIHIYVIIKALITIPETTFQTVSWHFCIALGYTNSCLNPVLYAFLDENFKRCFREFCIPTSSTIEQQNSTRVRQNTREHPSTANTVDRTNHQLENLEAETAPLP

Row | Structure (SMILES) | Ki [1] | efflux ratio at 2 h [2] | Papp A→B at 2 h [3]
1 | O=C(N[C@@H]1CC[C@@]2(O)[C@H]3Cc4ccc(O)c5c4[C@@]2(CCN3CC2CC2)[C@H]1O5)c1cc2ccccc2cn1 | 3.5 nM | 1.3 | 3 ×10⁻⁶ cm/s
2 | O=C(N[C@@H]1CC[C@@]2(O)[C@H]3Cc4ccc(O)c5c4[C@@]2(CCN3CC2CC2)[C@H]1O5)c1ccncc1 | 4.8 nM | > 10 | < 0.7 ×10⁻⁶ cm/s
